Test results from ChEMBL document CHEMBL4814007, “Structure-based discovery of SIAIS001 as an oral bioavailability ALK degrader constructed from Alectinib” (Eur J Med Chem, 2021).
pIC50: −log10 of the molar value. One block for each compound: values may come before it. The source made the active and inactive calls. The calls are words filed in the database; no cut-off is given here.

What was measured:
[1] = tested on: SR; test: Antiproliferative activity against ALK positive human SR cells; type: functional, cell-based
[2] = target: T1, von Hippel-Lindau disease tumor suppressor/ALK tyrosine kinase receptor (Homo sapiens) (UniProt Q9UM73+P40337); test: Protac activity at VHL1/ALK in human SR cells assessed as increase in ALK degradation at 500 nM by Western blot analysis; type: cell-based
T1 sequence (P40337 whole entry partner): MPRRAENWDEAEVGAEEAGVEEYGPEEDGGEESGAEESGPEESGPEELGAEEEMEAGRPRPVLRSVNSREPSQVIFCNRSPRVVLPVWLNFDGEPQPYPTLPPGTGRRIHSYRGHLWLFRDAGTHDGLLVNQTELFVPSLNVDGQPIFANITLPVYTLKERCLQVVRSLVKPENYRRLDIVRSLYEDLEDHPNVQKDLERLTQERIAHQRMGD
T1 sequence (Q9UM73 19-1620 limits assumed): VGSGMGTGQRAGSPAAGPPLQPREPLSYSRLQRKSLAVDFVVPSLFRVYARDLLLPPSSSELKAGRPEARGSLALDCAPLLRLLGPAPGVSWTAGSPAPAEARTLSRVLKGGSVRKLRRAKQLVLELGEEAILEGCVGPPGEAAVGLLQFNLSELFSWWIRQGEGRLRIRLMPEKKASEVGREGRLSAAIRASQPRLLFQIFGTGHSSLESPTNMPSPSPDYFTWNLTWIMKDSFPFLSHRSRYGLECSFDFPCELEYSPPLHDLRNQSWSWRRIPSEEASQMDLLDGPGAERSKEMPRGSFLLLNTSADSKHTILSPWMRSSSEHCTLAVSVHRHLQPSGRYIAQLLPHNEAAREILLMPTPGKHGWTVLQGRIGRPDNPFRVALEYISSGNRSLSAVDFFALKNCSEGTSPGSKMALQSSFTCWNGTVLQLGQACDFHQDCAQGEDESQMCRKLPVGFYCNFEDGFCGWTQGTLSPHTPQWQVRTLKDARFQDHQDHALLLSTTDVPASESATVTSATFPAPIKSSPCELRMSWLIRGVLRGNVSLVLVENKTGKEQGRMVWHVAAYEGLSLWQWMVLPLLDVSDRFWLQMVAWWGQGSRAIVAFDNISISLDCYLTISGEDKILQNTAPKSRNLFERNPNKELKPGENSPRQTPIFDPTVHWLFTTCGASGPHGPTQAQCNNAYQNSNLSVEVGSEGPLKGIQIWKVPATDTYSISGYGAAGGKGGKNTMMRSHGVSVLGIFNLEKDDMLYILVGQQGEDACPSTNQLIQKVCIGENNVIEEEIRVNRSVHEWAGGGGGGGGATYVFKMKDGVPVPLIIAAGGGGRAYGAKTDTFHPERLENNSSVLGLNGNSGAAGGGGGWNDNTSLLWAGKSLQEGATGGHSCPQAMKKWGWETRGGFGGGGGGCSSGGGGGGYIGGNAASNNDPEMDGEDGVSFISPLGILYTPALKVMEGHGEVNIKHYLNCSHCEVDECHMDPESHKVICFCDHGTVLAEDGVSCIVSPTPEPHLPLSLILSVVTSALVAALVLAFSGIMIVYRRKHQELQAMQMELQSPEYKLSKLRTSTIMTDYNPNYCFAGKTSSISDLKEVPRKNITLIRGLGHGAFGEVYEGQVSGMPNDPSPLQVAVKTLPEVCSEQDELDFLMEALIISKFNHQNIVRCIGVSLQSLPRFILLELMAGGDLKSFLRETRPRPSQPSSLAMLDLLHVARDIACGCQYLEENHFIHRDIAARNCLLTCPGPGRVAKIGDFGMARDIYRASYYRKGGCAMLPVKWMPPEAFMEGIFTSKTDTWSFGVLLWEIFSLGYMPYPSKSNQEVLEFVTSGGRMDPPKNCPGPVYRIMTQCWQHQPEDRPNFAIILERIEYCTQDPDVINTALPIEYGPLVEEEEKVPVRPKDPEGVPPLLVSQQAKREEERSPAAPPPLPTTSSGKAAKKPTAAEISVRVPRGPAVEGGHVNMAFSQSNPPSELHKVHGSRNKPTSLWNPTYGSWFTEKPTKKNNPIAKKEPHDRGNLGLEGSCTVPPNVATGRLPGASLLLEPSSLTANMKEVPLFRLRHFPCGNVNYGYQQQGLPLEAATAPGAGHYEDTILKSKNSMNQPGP

[3] = target: T1, von Hippel-Lindau disease tumor suppressor/ALK tyrosine kinase receptor (Homo sapiens); test: Protac activity at VHL/ALK in human SR cells assessed as protein abundance at 50 nM by Western blot analysis (reference value: 1); type: cell-based
[4] = target: T1, von Hippel-Lindau disease tumor suppressor/ALK tyrosine kinase receptor (Homo sapiens); test: Protac activity at VHL/ALK in human SR cells assessed as protein abundance at 0.05 nM by Western blot analysis (reference value: 1); type: cell-based
[5] = target: T1, von Hippel-Lindau disease tumor suppressor/ALK tyrosine kinase receptor (Homo sapiens); test: Protac activity at VHL/ALK in human SR cells assessed as protein abundance at 500 nM by Western blot analysis (reference value: 1); type: cell-based
[6] = target: T1, von Hippel-Lindau disease tumor suppressor/ALK tyrosine kinase receptor (Homo sapiens); test: Protac activity at VHL/ALK in human SR cells assessed as protein abundance at 5 nM by Western blot analysis (reference value: 1); type: cell-based
[7] = target: T1, von Hippel-Lindau disease tumor suppressor/ALK tyrosine kinase receptor (Homo sapiens); test: Protac activity at VHL/ALK in human SR cells assessed as protein abundance at 0.5 nM by Western blot analysis (reference value: 1); type: cell-based
[8] = tested on: SR; test: Induction of cell cycle arrest in human SR cells assessed as increase in accumulation at S phase at 100 nM incubated for 24 hrs; type: functional, cell-based
[9] = tested on: SR; test: Induction of cell cycle arrest in human SR cells assessed as increase in accumulation at G1/S phase at 100 nM incubated for 24 hrs; type: functional, cell-based
[10] = target: T2, Protein cereblon/ALK tyrosine kinase receptor (Homo sapiens, UniProt Q9UM73+Q96SW2); test: Protac activity at CRBN/ALK in human SR cells assessed as increase in ALK degradation at 500 nM by Western blot analysis; type: cell-based
Target sequence in this assay (Q96SW2 whole entry partner): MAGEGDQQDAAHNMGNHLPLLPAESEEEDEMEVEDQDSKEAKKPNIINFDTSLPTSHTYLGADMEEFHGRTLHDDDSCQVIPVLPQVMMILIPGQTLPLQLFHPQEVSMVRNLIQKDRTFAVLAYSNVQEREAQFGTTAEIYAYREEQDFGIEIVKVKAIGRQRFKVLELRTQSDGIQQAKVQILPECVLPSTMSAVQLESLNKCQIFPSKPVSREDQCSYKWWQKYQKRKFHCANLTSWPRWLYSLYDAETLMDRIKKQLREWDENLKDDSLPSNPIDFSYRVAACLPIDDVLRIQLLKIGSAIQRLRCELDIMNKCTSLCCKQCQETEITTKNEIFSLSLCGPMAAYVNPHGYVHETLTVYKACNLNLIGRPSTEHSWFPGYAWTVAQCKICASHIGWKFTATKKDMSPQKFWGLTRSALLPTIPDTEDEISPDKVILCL
Target sequence in this assay (Q9UM73 19-1620 limits assumed): as the sequence (Q9UM73 19-1620 limits assumed) above

[11] = target: T2, Protein cereblon/ALK tyrosine kinase receptor; test: Protac activity at CRBN/ALK in human SR cells assessed as protein abundance at 500 nM by Western blot analysis (reference value: 1); type: cell-based
Target sequence in this assay (Q96SW2 whole entry partner): as the sequence (Q96SW2 whole entry partner) above
Target sequence in this assay (Q9UM73 19-1620 limits assumed): as the sequence (Q9UM73 19-1620 limits assumed) above

[12] = target: T2, Protein cereblon/ALK tyrosine kinase receptor; test: Protac activity at CRBN/ALK in human SR cells assessed as protein abundance at 50 nM by Western blot analysis (reference value: 1); type: cell-based
Target sequence in this assay (Q96SW2 whole entry partner): as the sequence (Q96SW2 whole entry partner) above
Target sequence in this assay (Q9UM73 19-1620 limits assumed): as the sequence (Q9UM73 19-1620 limits assumed) above

[13] = target: T2, Protein cereblon/ALK tyrosine kinase receptor; test: Protac activity at CRBN/ALK in human SR cells assessed as protein abundance at 0.5 nM by Western blot analysis (reference value: 1); type: cell-based
Target sequence in this assay (Q96SW2 whole entry partner): as the sequence (Q96SW2 whole entry partner) above
Target sequence in this assay (Q9UM73 19-1620 limits assumed): as the sequence (Q9UM73 19-1620 limits assumed) above

[14] = target: T2, Protein cereblon/ALK tyrosine kinase receptor; test: Protac activity at CRBN/ALK in human SR cells assessed as protein abundance at 0.05 nM by Western blot analysis (reference value: 1); type: cell-based
Target sequence in this assay (Q96SW2 whole entry partner): as the sequence (Q96SW2 whole entry partner) above
Target sequence in this assay (Q9UM73 19-1620 limits assumed): as the sequence (Q9UM73 19-1620 limits assumed) above

[15] = target: T2, Protein cereblon/ALK tyrosine kinase receptor; test: Protac activity at CRBN/ALK in human SR cells assessed as protein abundance at 5 nM by Western blot analysis (reference value: 1); type: cell-based
Target sequence in this assay (Q96SW2 whole entry partner): as the sequence (Q96SW2 whole entry partner) above
Target sequence in this assay (Q9UM73 19-1620 limits assumed): as the sequence (Q9UM73 19-1620 limits assumed) above

[16] = target: T3, ALK tyrosine kinase receptor (Homo sapiens, UniProt Q9UM73); test: Inhibition of ALK in human SR cells assessed as reduction in STAT3 phosphorylation at 50 nM; type: cell-based
Target sequence in this assay (Q9UM73 19-1620 limits assumed): as above

[17] = target: T3, ALK tyrosine kinase receptor; test: Inhibition of ALK (unknown origin)
Target sequence in this assay (Q9UM73 whole entry): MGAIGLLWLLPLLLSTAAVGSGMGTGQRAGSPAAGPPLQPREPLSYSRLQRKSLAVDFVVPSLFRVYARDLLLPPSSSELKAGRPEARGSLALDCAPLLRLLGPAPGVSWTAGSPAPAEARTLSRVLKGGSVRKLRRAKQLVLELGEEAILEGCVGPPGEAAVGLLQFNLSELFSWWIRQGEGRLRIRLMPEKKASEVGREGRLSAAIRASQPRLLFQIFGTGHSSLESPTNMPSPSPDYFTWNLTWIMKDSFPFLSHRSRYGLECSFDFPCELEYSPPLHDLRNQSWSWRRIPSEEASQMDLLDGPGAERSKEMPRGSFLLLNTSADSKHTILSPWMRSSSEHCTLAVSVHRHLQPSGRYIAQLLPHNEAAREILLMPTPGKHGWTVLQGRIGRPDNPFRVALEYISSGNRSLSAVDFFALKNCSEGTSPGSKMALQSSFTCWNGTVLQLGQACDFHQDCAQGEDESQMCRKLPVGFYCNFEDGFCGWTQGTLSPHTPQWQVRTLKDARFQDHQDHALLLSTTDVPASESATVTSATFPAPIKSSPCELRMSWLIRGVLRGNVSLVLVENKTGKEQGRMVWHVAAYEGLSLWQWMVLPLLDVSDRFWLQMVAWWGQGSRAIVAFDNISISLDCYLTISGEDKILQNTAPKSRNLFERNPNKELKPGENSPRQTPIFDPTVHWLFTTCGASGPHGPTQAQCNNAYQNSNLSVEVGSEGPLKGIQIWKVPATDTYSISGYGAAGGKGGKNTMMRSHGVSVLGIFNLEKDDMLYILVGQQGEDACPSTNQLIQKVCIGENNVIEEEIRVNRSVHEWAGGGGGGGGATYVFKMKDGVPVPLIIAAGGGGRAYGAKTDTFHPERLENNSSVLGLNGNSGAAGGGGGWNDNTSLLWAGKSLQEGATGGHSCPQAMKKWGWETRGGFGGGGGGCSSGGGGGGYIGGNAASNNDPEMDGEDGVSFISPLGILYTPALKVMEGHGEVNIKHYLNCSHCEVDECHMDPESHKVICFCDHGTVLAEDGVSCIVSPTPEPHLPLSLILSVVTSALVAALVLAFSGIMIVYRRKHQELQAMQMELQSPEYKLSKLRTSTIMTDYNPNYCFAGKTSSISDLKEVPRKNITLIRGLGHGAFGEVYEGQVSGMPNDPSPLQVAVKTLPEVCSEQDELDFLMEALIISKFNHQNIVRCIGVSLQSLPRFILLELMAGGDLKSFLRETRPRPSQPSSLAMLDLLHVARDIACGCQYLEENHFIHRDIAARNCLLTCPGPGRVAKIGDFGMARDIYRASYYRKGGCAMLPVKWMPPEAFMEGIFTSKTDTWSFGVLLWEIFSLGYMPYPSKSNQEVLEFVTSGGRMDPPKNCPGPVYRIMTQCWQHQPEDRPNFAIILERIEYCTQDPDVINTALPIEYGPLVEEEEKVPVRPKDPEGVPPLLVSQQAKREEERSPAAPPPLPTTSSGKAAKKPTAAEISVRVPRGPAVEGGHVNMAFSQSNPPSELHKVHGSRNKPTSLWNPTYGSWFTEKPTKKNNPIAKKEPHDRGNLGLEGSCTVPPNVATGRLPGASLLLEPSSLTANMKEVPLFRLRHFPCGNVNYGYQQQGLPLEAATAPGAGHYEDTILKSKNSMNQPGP

[18] = target: T2, Protein cereblon/ALK tyrosine kinase receptor; test: Protac activity at CRBN/ALK in human SR cells assessed as increase in ALK degradation at 50 nM in presence of MLN4924/MG132 by Western blot analysis; type: cell-based
[19] = target: T3, ALK tyrosine kinase receptor; test: Inhibition of ALK phosphorylation in human SR cells at 0.5 nM; type: cell-based
Target sequence in this assay (Q9UM73 19-1620 limits assumed): as the sequence (Q9UM73 19-1620 limits assumed) above

[20] = target: T2, Protein cereblon/ALK tyrosine kinase receptor; test: Protac activity at CRBN/ALK in human SR cells assessed as increase in ALK degradation at 200 nM by Western blot analysis relative to control; type: cell-based
[21] = target: T2, Protein cereblon/ALK tyrosine kinase receptor; test: Protac activity at CRBN/ALK in human SR cells assessed as increase in ALK degradation at 50 nM in presence of MG132 by Western blot analysis; type: cell-based
[22] = target: T2, Protein cereblon/ALK tyrosine kinase receptor; test: Protac activity at CRBN/ALK in human SR cells assessed as induction of ALK degradation by Western blot analysis; type: cell-based
Target sequence in this assay (Q9UM73 whole entry): as the sequence (Q9UM73 whole entry) above
Target sequence in this assay (Q96SW2 whole entry): as the sequence (Q96SW2 whole entry partner) above

[23] = tested on: SR; test: Potency index, ratio of alectinib IC50 to test compound IC50 for antiproliferative activity against ALK positive human SR cells; type: functional
[24] = tested on: SR; test: Potency index, ratio of ceritinib IC50 to test compound IC50 for antiproliferative activity against ALK positive human SR cells; type: functional
[25] = target: T2, Protein cereblon/ALK tyrosine kinase receptor; test: Protac activity at CRBN/ALK in human SR cells assessed as induction of ALK degradation at 0.05 to 500 nM by Western blot analysis relative to control; type: cell-based; settings: dose 0.05-500 nM

SMILES: CCc1cc2c(cc1N1CCC(N3CCN(CCCCC#Cc4cccc5c4CN(C4CCC(=O)NC4=O)C5=O)CC3)CC1)C(C)(C)c1[nH]c3cc(C#N)ccc3c1C2=O (configuration not stated)
pIC50 [1]: 8.92

Activity [2]: Active
SMILES: CCc1cc2c(cc1N1CCC(N3CCN(C(=O)CCCCCCCCC(=O)NC(C(=O)N4C[C@H](O)C[C@H]4C(=O)NCc4ccc(-c5scnc5C)cc4)C(C)(C)C)CC3)CC1)C(C)(C)c1[nH]c3cc(C#N)ccc3c1C2=O (single isomer, unassigned)
pIC50 [1]: 7.74

SMILES: CCc1cc2c(cc1N1CCC(N3CCN(C(=O)CCOCCOCCNc4cccc5c4C(=O)N(C4CCC(=O)NC4=O)C5=O)CC3)CC1)C(C)(C)c1[nH]c3cc(C#N)ccc3c1C2=O (configuration not stated)
pIC50 [1]: 8.60

SMILES: CCc1cc2c(cc1N1CCC(N3CCN(C(=O)CCCCCCNc4cccc5c4CN(C4CCC(=O)NC4=O)C5=O)CC3)CC1)C(C)(C)c1[nH]c3cc(C#N)ccc3c1C2=O (configuration not stated)
pIC50 [1]: 8.04

Activity [3]: 0.93
Activity [4]: 0.96
Activity [5]: 0.43
Activity [6]: 1.04
Activity [7]: 1.14
Activity [2]: Active
SMILES: CCc1cc2c(cc1N1CCC(N3CCN(C(=O)CCCCC(=O)NC(C(=O)N4C[C@H](O)C[C@H]4C(=O)NCc4ccc(-c5scnc5C)cc4)C(C)(C)C)CC3)CC1)C(C)(C)c1[nH]c3cc(C#N)ccc3c1C2=O (single isomer, unassigned)
pIC50 [1]: 7.49

SMILES: CCc1cc2c(cc1N1CCC(N3CCN(C(=O)CCCNc4cccc5c4CN(C4CCC(=O)NC4=O)C5=O)CC3)CC1)C(C)(C)c1[nH]c3cc(C#N)ccc3c1C2=O (configuration not stated)
pIC50 [1]: 8.48

SMILES: Cc1cc(Nc2ncc(Cl)c(Nc3ccccc3S(=O)(=O)C(C)C)n2)c(OC(C)C)cc1C1CCN(CCOCCOCCNC(=O)CNc2cccc3c2C(=O)N(C2CCC(=O)NC2=O)C3=O)CC1 (configuration not stated)
pIC50 [1]: 8.23

SMILES: CCc1cc2c(cc1N1CCC(N3CCOCC3)CC1)C(C)(C)c1[nH]c3cc(C#N)ccc3c1C2=O [ALECTINIB]
Activity [8]: Active
pIC50 [1]: 8.47
Activity [9]: Active

Activity [10]: Active
Activity [11]: 0.47
Activity [12]: 0.55
Activity [13]: 0.82
Activity [14]: 1.05
Activity [15]: 0.66
SMILES: CCc1cc2c(cc1N1CCC(N3CCN(C(=O)CCCNc4cccc5c4C(=O)N(C4CCC(=O)NC4=O)C5=O)CC3)CC1)C(C)(C)c1[nH]c3cc(C#N)ccc3c1C2=O (configuration not stated)
pIC50 [1]: 7.89

SMILES: CCc1cc2c(cc1N1CCC(N3CCN(C(=O)CCCCCNc4cccc5c4C(=O)N(C4CCC(=O)NC4=O)C5=O)CC3)CC1)C(C)(C)c1[nH]c3cc(C#N)ccc3c1C2=O (configuration not stated)
pIC50 [1]: 8.47

Activity [10]: Active
Activity [11]: 0.43
Activity [12]: 0.66
Activity [13]: 1.12
Activity [14]: 1.17
Activity [15]: 0.89
SMILES: CCc1cc2c(cc1N1CCN(C(=O)CNc3cccc4c3C(=O)N(C3CCC(=O)NC3=O)C4=O)CC1)C(C)(C)c1[nH]c3cc(C#N)ccc3c1C2=O (configuration not stated)
pIC50 [1]: 8.49

SMILES: CCc1cc2c(cc1N1CCNCC1)C(C)(C)c1[nH]c3cc(C#N)ccc3c1C2=O
pIC50 [1]: 9.10

SMILES: CCc1cc2c(cc1N1CCN(C(=O)CCOCCOCCNc3cccc4c3C(=O)N(C3CCC(=O)NC3=O)C4=O)CC1)C(C)(C)c1[nH]c3cc(C#N)ccc3c1C2=O (configuration not stated)
pIC50 [1]: 7.51

inhibition [16]: inactive
pIC50 [17]: 8.33
Activity [10]: Active
Activity [18]: inactive
inhibition [19]: inactive
Activity [20]: > 50%
Activity [11]: 0.27
Activity [12]: 0.24
Activity [21]: inactive
Activity [13]: 0.67
DC50 [22]: 6300 nM
Emax [25]: 87.7%
Activity [14]: 0.9
Activity [15]: 0.48
SMILES: CCc1cc2c(cc1N1CCC(N3CCN(C(=O)CNc4cccc5c4CN(C4CCC(=O)NC4=O)C5=O)CC3)CC1)C(C)(C)c1[nH]c3cc(C#N)ccc3c1C2=O (configuration not stated)
Activity [8]: inactive
pIC50 [1]: 9.30
Activity [9]: Active
Ratio [23]: 6
Ratio [24]: 5

SMILES: CCc1cc2c(cc1N1CCC(N3CCN(C(=O)CCCCNc4cccc5c4CN(C4CCC(=O)NC4=O)C5=O)CC3)CC1)C(C)(C)c1[nH]c3cc(C#N)ccc3c1C2=O (configuration not stated)
pIC50 [1]: 8.33

SMILES: CCc1cc2c(cc1N1CCC(NC(=O)CCCNc3cccc4c3C(=O)N(C3CCC(=O)NC3=O)C4=O)CC1)C(C)(C)c1[nH]c3cc(C#N)ccc3c1C2=O (configuration not stated)
pIC50 [1]: 8.09

SMILES: COc1cc(N2CCC(NC(=O)CCCCCCCCCC(=O)N[C@@H](C(=O)N3C[C@H](O)C[C@H]3C(=O)NCc3ccc(-c4scnc4C)cc3)C(C)(C)C)CC2)ccc1Nc1ncc(Cl)c(Nc2ccccc2P(C)(C)=O)n1
pIC50 [1]: 8.96

SMILES: Cc1cc(Nc2ncc(Cl)c(Nc3ccccc3S(=O)(=O)C(C)C)n2)c(OC(C)C)cc1C1CCN(C(=O)NCCNC(=O)CNc2cccc3c2C(=O)N(C2CCC(=O)NC2=O)C3=O)CC1 (configuration not stated)
pIC50 [1]: 8.07
